Results reported in patent publication US5541183A, “Ginkgolide derivatives” (priority 1993, dated 1996).
Like-named read-outs stand apart in the source and are kept apart here.

Experiments:
[1] = system: PAF-induced rabbit platelet aggregation; test: PAF-induced rabbit platelet aggregation; format: cell-based, rabbit (New Zealand white); settings: Oryctolagus cuniculus, read-out: IC50, inhibition of PAF-induced rabbit platelet aggregation
[2] = system: Ag-induced bronchoconstriction; test: Ag-induced bronchoconstriction in the guinea pig; format: in vivo, guinea pig (Hartley strain); settings: for ED50: Cavia porcellus, iv, 10 min, read-out: ID50, Ag-induced bronchoconstriction
Description: Pharmacology Example 3: Ag-induced bronchoconstriction
All experiments utilized male guinea pigs (Hartley strain), weighing 350 to 500 g. The animal was passively sensitized with rabbit anti-chicken egg albumin (1.3 mg/kg), 17-24 hrs before ovaibumin challenge. Passively sensitized animals were anesthetized with ethyl carbamate 1.5 g/kg, i.p.). An intratracheal cannula was inserted into trachea and indwelling catheters were inserted into the right carotid artery and left jugular vein. The animals were ventilated with a small animal respirator (UGO BASILE 7025, 70 breaths/min, 1 ml/stroke/100 g). To monitor dead or not, mean arterial pressure was measured continuously with a pressure transducer (Physiological Pressure Transducer, MICRON INSTRUMENT MP-15) connected to an amplifier (COULBOURN INSTRUMENT 572-25) and recorder (COULBOURN INSTRUMENT R14-18). The rate of bronchoconstriction was measured as an increase in lung overflow with a bronchospasm transducer (UGO BASILE 7020) from a side arm off the tracheal cannula, and expressed as a percentage of maximum broncoconstriction obtained by clamping off the tracheal cannular. Test compounds or vehicle (0.5% DMSO) were administered through the cannula into the jugular vein and ovalbumin (1.0 mg/kg, i.v.) was administered 10 minutes later. Bronchoconstriction response was compared to that obtained with control group treated with vehicle. Percent inhibition was calculated for each dose. If necessary, log dose-response curves were generated and the ID50 values were determined by regression analysis.

[3] = system: PAF induced Lethality; test: PAF induced Lethality in Mice; format: in vivo; settings: 10 mg/kg intraperitoneally, 2 minutes before PAF 10 μg/kg I.V.; alive after 2 hours; control 0
Description: Pharmacology Example 5: PAF induced Lethality in Mice
PAF given I.V. (10 μg/kg) to mice causes an immediate hypotensive shock leading to death in 1 hour or less. Compounds were given intraperitoneally (dose of compounds : 10 mg/kg) at 2 minutes before the PAF challenge. Animals alive after 2 hours were counted and the activity of test compounds expressed as % survival corrected for any control (saline treated) animals which survived the PAF challenge.

[4] = system: PAF-induced bronchoconstriction; test: PAF-induced bronchoconstriction in the guinea pig; format: in vivo, guinea pig (Hartley strain); settings: for ED50: Cavia porcellus, iv, read-out: ID50, PAF-induced bronchoconstriction
Description: Pharmacology Example 2: PAF-induced bronchoconstriction
All experiments utilized male guinea pigs (Hartley strain), weighing 350 to 450 g, that were anesthetized with ethyl carbamate (1.5 g/kg, i.p.). An intratracheal cannula was inserted into trachea and indwelling catheters were inserted into the right carotid artery and left jugular vein. The animals were ventilated with a small animal respirator (UGO BASILE 7025, 70 breaths/min, 1 ml/stroke/100 g). To monitor dead or not, mean arterial pressure was measured continuously with a pressure transducer (Physiological Pressure Transducer, MICRON INSTRUMENT MP-15) connected to an amplifier (COULBOURN INSTRUMENT 572-25) and recorder (COULBOURN INSTRUMENT R14-18). The rate of bronchoconstriction was measured as an increase in lung overflow with a bronchospasm transducer (UGO BASILE 7020) from a side arm off the tracheal cannula, and expressed as a percentage of maximum bronchoconstriction obtained by clamping off the tracheal cannula. Test compounds or vehicle (0.5% DMSO) were administered through the cannula into the jugular vein and PAF (100 ng/kg, i.v.) was administered. Bronchoconstriction response was compared to that obtained with control group treated with vehicle. Percent inhibition was calculated for each dose. Log dose-response curves were generated and the ID50 values were determined by regression analysis, and the results are presented in Table 2.
Table 2: Results for inhibition of PAF-induced bronchoconstriction in the guinea pig.

[5] = system: bronchial eosinophilia; test: aeroallergen-induced bronchial infiltration of eosinophils in the bronchoalveolar lavage fluid; format: in vivo, guinea pig (Hartley strain); settings: 30 mg/kg p.o., + 4h after aeroallergen challenge; for % Inhibition of bronchial eosinophilia: at 24 hours; for Eosinophils in BALF (Mean ± SEM): counted at 24 hours, vehicle 927 ± 131
Description: Pharmacology Example 4: The aeroallergen-induced bronchial infiltration of eosinophils in the bronchoalveolar lavage fluid.
Adult, male Hartley-strain guinea pigs weighing 492-735 g were sensitized by intraperitoneal injection of 10 μg ovalbumin (OA) mixed in 100-mg aluminum hydroxide. And guinea pigs were pretreated with pyrilamine (1.0 mg/kg) intraperitoneally 30 min. before aeroallergen challenge. Individual guinea pigs were placed in a two-liter glass chamber and exposed to a five aerosol of OA solution (0.5 mg/ml in saline containing 0.02% antifoal emulsion for a period of 10 min.).
4 hours after aero allergen challenge, the guinea pigs received either vehicle or compounds suspended in 1% acacia by oral garage.
24 hours after aero allergen challenge, the animals were euthanized with an i.p. overdose of pentobarbital sodium (100 mg/kg). The abdominal cavity was opened, and the animal was exsaguinated by cutting the abdominal aorta. A midline incision was made through the rib cage, exposing the heart and lungs.
The trachea was cannulated with an 18-gauge stainless steel feeding tube; 20 ml/kg of prewarmed (37° C.) physiological saline was instilled and the BALF was gently withdrawn.
BALF (amounting to 60-80% of the saline infused) was transferred to a 10 ml vacutainer containing 0.10 ml of 15% EDTA solution and centrifugated at 2400 rpm for 10 min.
The supernatant was poured off, and the cell pellet was suspended in physiological saline equal to the ratio of BALF recovered (ml) and physiological saline instilled in the lungs (ml), multiplied by two.
The eosinophils in BALF were counted by Unopette Test 5877.
The mean numbers of eosinophils±SEM in the BALF of compound-treated animals and corresponding control "vehicle"-treated animals were compared by Student's t-test. A P value of 0.05 or less was considered significant. Table 4 lists results from this assay for inhibition of bronchial eosinophilia for illustrative examples of this invention.

[6] = 0.1 mg/kg, jugular vein, ovalbumin 1.0 mg/kg i.v. 10 minutes later
[7] = 0.5 mg/kg, jugular vein, ovalbumin 1.0 mg/kg i.v. 10 minutes later
[8] = 1.0 mg/kg, jugular vein, ovalbumin 1.0 mg/kg i.v. 10 minutes later
[9] = jugular vein, ovalbumin 1.0 mg/kg i.v. 10 minutes later

Structure (SMILES) | IC50 ([1]; rabbit PRP, PAF 5×10^-9 M) [nM] | % inhibition of Ag-induced bronchoconstriction [2, 6] [%] | % inhibition of Ag-induced bronchoconstriction [2, 7] [%] | % inhibition of Ag-induced bronchoconstriction [2, 8] [%] | ED50 [2, 9] [mg/kg] | Survival rate (%) [3] [%] | % inhibition of PAF-induced bronchoconstriction ([4]; 0.50 mg/kg, jugular vein, PAF 100 ng/kg i.v.) [%] | % inhibition of PAF-induced bronchoconstriction ([4]; 1.00 mg/kg, jugular vein, PAF 100 ng/kg i.v.) [%] | % inhibition of PAF-induced bronchoconstriction ([4]; 2.00 mg/kg, jugular vein, PAF 100 ng/kg i.v.) [%] | ED50 [4] [mg/kg] | % Inhibition of bronchial eosinophilia [5] [%] | Eosinophils in BALF (Mean ± SEM) [5] | IC50 [1] [nM] | ED50 [2] [mg/kg] | % inhibition of PAF-induced bronchoconstriction ([4]; 0.01 mg/kg, jugular vein, PAF 100 ng/kg i.v.) [%] | % inhibition of PAF-induced bronchoconstriction ([4]; 0.02 mg/kg, jugular vein, PAF 100 ng/kg i.v.) [%] | % inhibition of PAF-induced bronchoconstriction ([4]; 0.04 mg/kg, jugular vein, PAF 100 ng/kg i.v.) [%] | ED50 ([4]; jugular vein, PAF 100 ng/kg i.v.) [mg/kg]
CC1C(=O)OC2C(O)C34C5CC(C(C)(C)C)C36C(OC(=O)C6OCc3ccc(O)cn3)OC4(C(=O)O5)C12O (stereo not shown) [Example 115, 10-(2-(5-hydroxypyridinyl)-methoxy)-Ginkgolide B] | 152 | 65 | 100 | 100 | 0.08 | 100 |  |  |  |  |  |  |  |  |  |  |  | 
CC1C(=O)OC2C(O)C34C5CC(C(C)(C)C)C36C(OC(=O)C6O)OC4(C(=O)O5)C12O (stereo not shown) [Ginkgolide B, reference compound] | 258 | 10 | 42 | 82 | 0.83 |  | 38 | 64 | 100 | 0.6 | 0 | 1148 ± 305 10^3 cells/m1 BALF |  |  |  |  |  | 
CC1C(=O)OC2C(O)C34C5CC(C(C)(C)C)C36C(OC(=O)C6OCc3ccc6c(c3)OCO6)OC4(C(=O)O5)C12O (stereo not shown) [Example 82, 10-piperonyloxy-Ginkgolide B] |  | 60 | 94 | 100 |  | 100 |  |  |  |  | 34 | 616 ± 145 10^3 cells/m1 BALF | 50.7 | 0.09 |  |  |  | 
Cc1cnc(COC2C(=O)OC3OC45C(=O)OC6CC(C(C)(C)C)C32C64C(O)C2OC(=O)C(C)C25O)c(C)c1 (stereo not shown) [Example 96, 10-(3,5-dimethyl-2-pyridinyl) -methoxy-Ginkgolide] | 24.5 | 50 | 97 | 100 | 0.1 | 100 |  |  |  |  | 31 | 641 ± 134 10^3 cells/m1 BALF |  |  | 17 | 26 | 96 | 0.023
